# Source: paper PMC6467784 (Journal of medicinal chemistry, 2019)
# Legend:
# [1] = tested on: off-target receptors and transporters; test: PDSP off-target screen; format: binding, human
# [2] = target: T1, hA1AR (Homo sapiens, UniProt P30542); conditions: read-out: A1AR Ki; human (h); ref [1],[17],[23],[30],[32]-[36],[43]-[45]; cited from earlier work
# T1 sequence (P30542 1-326): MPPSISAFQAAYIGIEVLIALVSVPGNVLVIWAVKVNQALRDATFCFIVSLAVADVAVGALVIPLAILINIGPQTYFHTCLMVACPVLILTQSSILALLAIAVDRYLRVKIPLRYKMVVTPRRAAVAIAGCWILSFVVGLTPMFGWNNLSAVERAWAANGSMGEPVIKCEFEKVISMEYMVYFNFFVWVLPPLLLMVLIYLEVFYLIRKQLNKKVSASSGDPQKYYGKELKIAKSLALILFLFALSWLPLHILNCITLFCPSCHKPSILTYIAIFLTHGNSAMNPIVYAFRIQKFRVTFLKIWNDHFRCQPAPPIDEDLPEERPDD
# [3] = target: hA2AAR (Homo sapiens, UniProt P29274); conditions: read-out: A2AAR Ki; human (h); ref [1],[17],[23],[30],[32]-[35],[43],[45]; cited from earlier work
# [4] = target: rA2AAR; conditions: read-out: A2AAR Ki; rat (r); ref [17],[23],[30],[33],[34],[43],[45]; cited from earlier work
# [5] = target: hA3AR (Homo sapiens, UniProt P0DMS8); conditions: read-out: A3AR Ki; human (h); ref [1],[17],[23],[30],[32]-[35],[43],[45]; cited from earlier work
# [6] = target: DAT (Homo sapiens, UniProt Q01959); test: PDSP off-target binding, DAT; conditions: read-out: Off-target Ki, DAT
# [7] = target: 5HT2C (Homo sapiens, UniProt P28335); test: PDSP off-target binding, 5HT2C; conditions: read-out: Off-target Ki, 5HT2C
# [8] = target: T2, mA1AR (Mus musculus, UniProt Q60612); conditions: read-out: A1AR Ki; mouse (m); ref [17],[23],[30],[32]-[34],[36],[43]-[45]; cited from earlier work
# T2 sequence (Q60612 1-326): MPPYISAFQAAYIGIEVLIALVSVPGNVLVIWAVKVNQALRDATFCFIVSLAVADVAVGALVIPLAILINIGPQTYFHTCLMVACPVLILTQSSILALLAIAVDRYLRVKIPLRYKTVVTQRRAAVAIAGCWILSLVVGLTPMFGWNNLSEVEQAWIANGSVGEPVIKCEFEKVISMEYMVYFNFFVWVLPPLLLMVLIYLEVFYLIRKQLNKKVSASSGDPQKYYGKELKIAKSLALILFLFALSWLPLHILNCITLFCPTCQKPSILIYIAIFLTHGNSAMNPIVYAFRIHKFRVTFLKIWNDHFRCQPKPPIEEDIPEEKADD
# [9] = target: mA2AAR (Mus musculus, UniProt Q60613); conditions: mouse (m); at 10 μM; ref [30],[33],[34],[43]; cited from earlier work
# [10] = target: mA3AR (Mus musculus, UniProt Q61618); conditions: read-out: A3AR Ki; mouse (m); ref [17],[23],[30],[32]-[34],[43],[45]; cited from earlier work
# [11] = tested on: GPCR assays; test: Broad GPCR screening; format: cell-based; conditions: at 10 μM; DiscoverX
# [12] = tested on: 403 kinases; test: Kinase screen; format: binding; conditions: at 10 μM; among 403 kinases
# [13] = Pharmacokinetics in male cynomolgus monkeys; format: in vivo, cynomolgus monkey; conditions: one-day observation period
# [14] = tested on: female rhesus monkeys; test: Tolerability in female rhesus monkeys; format: in vivo, rhesus monkey; conditions: 1 or 3 mg/kg in a food treat; up to 4 h post-dosing
# [15] = Stability in simulated intestinal fluid; format: in vitro ADME
# [16] = Human liver microsomes; format: in vitro ADME
# [17] = tested on: anesthetized rat; test: Cardiovascular effects in the anesthetized rat; format: in vivo; conditions: 3 mg/kg, ip., preliminary
# [18] = tested on: mouse; conditions: 60 mg/kg
# [19] = tested on: wild-type C57BL/6J mice; conditions: 3 mg/kg ip.; average from dosing to 60 min; ref [30]; cited from earlier work
# [20] = tested on: A1AR, A3AR; conditions: ref [30]; cited from earlier work
# [21] = target: rA1AR (Rattus norvegicus, UniProt P25099); conditions: read-out: A1AR Ki; rat (r); ref [17],[23],[30],[33],[34],[43],[45]; cited from earlier work
# [22] = target: σ1 (Homo sapiens, UniProt Q99720); test: PDSP off-target binding, σ1
# σ1, sequence (Q99720 whole entry): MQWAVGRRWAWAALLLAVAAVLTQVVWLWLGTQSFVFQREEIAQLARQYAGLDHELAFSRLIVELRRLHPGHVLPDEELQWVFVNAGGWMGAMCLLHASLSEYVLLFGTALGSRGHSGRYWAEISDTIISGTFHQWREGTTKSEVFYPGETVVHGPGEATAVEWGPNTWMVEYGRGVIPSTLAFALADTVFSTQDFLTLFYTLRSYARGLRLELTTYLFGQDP
# hA3AR, sequence (P0DMS8 whole entry): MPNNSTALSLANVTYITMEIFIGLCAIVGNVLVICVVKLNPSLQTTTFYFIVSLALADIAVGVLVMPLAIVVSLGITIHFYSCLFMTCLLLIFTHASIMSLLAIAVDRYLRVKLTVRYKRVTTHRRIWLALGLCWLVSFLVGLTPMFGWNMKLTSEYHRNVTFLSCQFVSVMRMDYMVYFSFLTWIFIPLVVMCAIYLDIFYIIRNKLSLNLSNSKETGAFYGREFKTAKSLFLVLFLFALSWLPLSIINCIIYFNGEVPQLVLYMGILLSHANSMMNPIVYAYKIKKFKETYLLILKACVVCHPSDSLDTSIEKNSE
# hA2AAR, sequence (P29274 whole entry): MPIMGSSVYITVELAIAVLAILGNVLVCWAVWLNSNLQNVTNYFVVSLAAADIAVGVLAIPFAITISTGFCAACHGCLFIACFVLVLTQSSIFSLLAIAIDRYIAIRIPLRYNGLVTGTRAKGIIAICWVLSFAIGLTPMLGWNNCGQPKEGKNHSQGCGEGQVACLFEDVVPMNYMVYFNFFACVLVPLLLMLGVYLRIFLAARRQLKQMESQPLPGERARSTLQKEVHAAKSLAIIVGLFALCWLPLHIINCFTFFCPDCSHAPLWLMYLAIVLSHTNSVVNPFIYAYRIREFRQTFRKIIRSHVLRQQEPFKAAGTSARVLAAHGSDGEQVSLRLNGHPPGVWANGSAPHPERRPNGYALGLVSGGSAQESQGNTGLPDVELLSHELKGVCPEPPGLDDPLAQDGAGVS
# rA1AR, sequence (P25099 whole entry): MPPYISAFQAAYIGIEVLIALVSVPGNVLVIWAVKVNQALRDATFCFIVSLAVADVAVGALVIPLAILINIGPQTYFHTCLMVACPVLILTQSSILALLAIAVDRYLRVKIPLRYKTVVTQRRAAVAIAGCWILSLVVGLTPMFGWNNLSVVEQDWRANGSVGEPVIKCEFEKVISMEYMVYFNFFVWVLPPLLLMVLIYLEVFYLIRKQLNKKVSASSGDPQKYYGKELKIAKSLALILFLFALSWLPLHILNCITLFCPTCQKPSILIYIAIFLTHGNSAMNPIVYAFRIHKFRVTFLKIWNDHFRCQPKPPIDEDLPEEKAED
# mA2AAR, sequence (Q60613 whole entry): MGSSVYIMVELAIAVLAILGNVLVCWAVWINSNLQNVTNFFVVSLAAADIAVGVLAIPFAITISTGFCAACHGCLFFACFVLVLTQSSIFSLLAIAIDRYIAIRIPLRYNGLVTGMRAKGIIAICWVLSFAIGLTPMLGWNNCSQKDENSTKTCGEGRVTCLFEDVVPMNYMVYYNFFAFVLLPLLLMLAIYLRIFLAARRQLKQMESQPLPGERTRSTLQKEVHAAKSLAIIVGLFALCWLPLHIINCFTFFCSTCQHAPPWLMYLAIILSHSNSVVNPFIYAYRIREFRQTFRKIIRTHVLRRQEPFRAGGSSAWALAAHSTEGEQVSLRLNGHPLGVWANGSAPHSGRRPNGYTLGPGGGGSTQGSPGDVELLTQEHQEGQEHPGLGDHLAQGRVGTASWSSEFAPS
# 5HT2C, sequence (P28335 33-458): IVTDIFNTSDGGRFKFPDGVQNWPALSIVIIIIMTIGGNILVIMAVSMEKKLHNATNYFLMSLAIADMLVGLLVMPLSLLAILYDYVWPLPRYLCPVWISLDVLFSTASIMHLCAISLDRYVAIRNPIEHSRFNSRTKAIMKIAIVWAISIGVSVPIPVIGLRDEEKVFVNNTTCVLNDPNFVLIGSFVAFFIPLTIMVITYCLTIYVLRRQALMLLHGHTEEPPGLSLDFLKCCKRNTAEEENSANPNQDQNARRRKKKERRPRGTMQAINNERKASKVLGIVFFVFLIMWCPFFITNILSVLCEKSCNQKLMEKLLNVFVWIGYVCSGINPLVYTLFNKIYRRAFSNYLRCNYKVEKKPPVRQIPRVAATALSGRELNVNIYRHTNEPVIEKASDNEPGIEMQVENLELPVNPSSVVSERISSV
# mA3AR, sequence (Q61618 whole entry): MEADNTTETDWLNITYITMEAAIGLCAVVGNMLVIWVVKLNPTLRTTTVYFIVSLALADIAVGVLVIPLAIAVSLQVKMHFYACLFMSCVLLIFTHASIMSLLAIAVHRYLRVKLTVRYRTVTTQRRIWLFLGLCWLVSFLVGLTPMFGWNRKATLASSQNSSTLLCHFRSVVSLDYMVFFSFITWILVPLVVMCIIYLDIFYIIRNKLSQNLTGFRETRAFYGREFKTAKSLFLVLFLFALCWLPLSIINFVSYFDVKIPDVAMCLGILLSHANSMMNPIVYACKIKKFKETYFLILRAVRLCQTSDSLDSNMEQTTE
# DAT, sequence (Q01959 whole entry): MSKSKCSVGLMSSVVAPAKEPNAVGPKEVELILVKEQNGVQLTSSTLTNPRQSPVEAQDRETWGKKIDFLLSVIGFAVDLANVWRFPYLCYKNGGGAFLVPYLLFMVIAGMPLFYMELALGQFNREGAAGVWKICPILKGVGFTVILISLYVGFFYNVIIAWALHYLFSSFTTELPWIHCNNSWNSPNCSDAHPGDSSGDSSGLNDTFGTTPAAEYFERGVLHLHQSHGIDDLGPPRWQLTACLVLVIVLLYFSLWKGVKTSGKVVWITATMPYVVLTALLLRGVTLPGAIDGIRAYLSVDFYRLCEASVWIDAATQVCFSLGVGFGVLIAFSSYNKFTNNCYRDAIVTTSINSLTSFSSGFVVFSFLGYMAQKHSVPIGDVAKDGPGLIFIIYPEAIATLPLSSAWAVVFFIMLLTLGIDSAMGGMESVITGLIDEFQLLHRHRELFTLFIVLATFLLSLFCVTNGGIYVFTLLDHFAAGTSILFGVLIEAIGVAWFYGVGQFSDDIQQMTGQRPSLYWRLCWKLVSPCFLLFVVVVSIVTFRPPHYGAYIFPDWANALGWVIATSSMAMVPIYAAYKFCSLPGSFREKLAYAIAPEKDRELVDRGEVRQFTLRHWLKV
smiles,measurement,setting,value
OC[C@H]1O[C@@H](n2cnc3c(NC(C4CC4)C4CC4)ncnc32)[C@H](O)[C@@H]1O [Compound 8],"Off-target, receptor: interactions found",[1],none
same,Ki,[2],0.85 ± 0.27 nM
same,Ki,[3],1470 ± 380 nM
same,Ki,[4],1370 nM
same,Ki,[5],41.3 ± 5.3 nM
OCC12CC1C(n1cnc3c(NC(C4CC4)C4CC4)nc(Cl)nc31)C(O)C2O (centres unmarked) [Compound 23],Ki,[6],4750 nM
same,Ki,[7],1850 nM
same,Ki,[2],39 ± 17 nM
same,Ki,[8],0.71 nM
same,Ki,[3],2200 nM
same,A2AAR % inhibition,[9],41±9%
same,Ki,[5],1600 ± 210 nM
same,Ki,[10],1030 nM
O[C@@H]1[C@H](O)[C@@H]2C[C@@H]2[C@H]1n1cnc2c(NC(C3CC3)C3CC3)nc(Cl)nc21 [Compound 7],Broad GPCR screening result,[11],not promiscuous
same,Hits in kinase screen,[12],only two weak hits
same,Clinical observations,[13],no clinical observations
same,Adverse reaction after oral dosing,[14],no adverse reaction
same,Stability in simulated intestinal fluid,[15],stable
same,Stability in human liver microsomes,[16],stable
same,Effects on heart rate and blood pressure,[17],"modest effects on heart rate (slow onset of reduction) and blood pressure (a modest, transient rise)"
same,Lethality in the mouse,[18],non-lethal
same,Tb,[19],33.4±1.7 °C
same,ARs causing hypothermia,[20],A3AR >> A1AR[30]
Nc1nc(Cl)nc2c1ncn2[C@H]1[C@H](O)[C@H](O)[C@]2(CO)C[C@H]12 [Compound 21],"Off-target, receptor: interactions found",[1],none
same,Ki,[21],273 nM
CNC(=O)[C@]12C[C@@H]1[C@@H](n1cnc3c(NC4CCCC4)nc(Cl)nc31)[C@H](O)[C@@H]2O [Compound 6],Ki,[22],1550 nM
